Our source for the melting point and IC50 values is US10221179B2, “Substituted pyrazoloquinazolinones and pyrroloquinazolinones as allosteric modulators of group II metabotropic glutamate receptors” (DOMAIN THERAPEUTICS, priority 2014, dated 2019).

In general, melting point refers to the temperature of the solid-liquid transition. Broadly, the IC50 is the concentration needed to halve the response being measured.

Each structure is given as a SMILES string.

In one data set the target is T1, human mGluR2 (hmGluR2) (Homo sapiens, UniProt Q14416).
T1 construct: expressed in transfected cells; host or cells: HEK-293 cells, transient co-transfection by electroporation
Description: Ca++ functional assay, human mGluR2 transiently over-expressed in HEK-293 cells (agonist and negative allosteric modulator modes). The format is cell-based. To be noted: glutamate at EC80, intracellular calcium (Fluo4AM), read-out: hmGluR2 negative allosteric modulator activity IC50. As to the method:
Example 127: Human mGluR2 and mGluR3 Evaluation Using Ca^++ Functional Assay
Examples of the present invention were tested successively for their agonist and negative allosteric modulator activities on human mGluR2 (hmGluR2) and mGluR3 (hmGluR3) transiently over-expressed in HEK-293 cells.
Cell Culture and Transfection
HEK-293 cells are maintained in Modified Eagle's Medium supplemented with 10% Foetal Calf Serum, 1% Penicillin/Streptomycin and 1% non-essential amino acids at 37° C./5% CO2.
Cells are co-transfected by electroporation with four DNA plasmids encoding hmGluR2 or hmGluR3, a chimeric G protein allowing redirection of the activation signal to intracellular calcium pathway (Brabet I et al., Neuropharmacology 37(8), 1043-51, 1998), and two glutamate transporters minimizing receptor desensitization by endogenous glutamate. After transfection, cells are cultured for 24 h at 37° C./5% CO2.
Calcium Assay IC50 Determination
Receptor activity is detected by changes in intracellular calcium measured using the fluorescent Ca^2+ sensitive dye, Fluo4AM (Molecular Probes).
On the day of the assay, culture medium is aspirated and replaced during 3 hours by medium without serum supplemented with 1% Glutamax, 1% Penicillin/Streptomycin and 1% non-essential amino acids. Then, cells are washed with freshly prepared buffer B (HBSS 1×(PAA), Hepes 20 mM, MgSO4-7H2O 1 mM, Na2CO3 3.3 mM, CaCl2-2H2O 1.3 mM, 0.1% BSA, Probenecid 2.5 mM) and loaded at 37° C. in 5% CO2 for 1.5 hours with buffer B containing 1 μM Fluo4AM, 0.1 mg/mL Pluronic Acid, 7 μg/mL Glutamate Pyruvate Transaminase and 2 mM sodium pyruvate. Afterwards cells are washed twice with buffer B. Then cells are detached using StemPro Accutase (Fischer Scientific), resuspended in buffer B and seeded in 384 well plate at a density of 30,000 cells per well. Addition of compounds and intracellular Ca^2+ measurements (excitation 485 nm, emission 525 nm) are performed by the fluorescence microplate reader FLIPRTetra (Molecular Devices).
Agonist and negative allosteric modulator activities of compounds are consecutively evaluated on the same cell plate. […] Then, cells are stimulated by an EC80 glutamate concentration and fluorescence is recorded for additional 3 minutes. EC80 glutamate concentration is the concentration giving 80% of the maximal glutamate response. Agonist or negative allosteric modulator activity(ies) are evaluated in comparison to basal signals evoked by buffer B or EC80 glutamate alone, respectively.
For IC50 determination, a dose-response test is performed using 20 concentrations (ranging over 6 logs) of each compound. Dose-response curves are fitted using the sigmoidal dose-response (variable slope) analysis in GraphPad Prism program (Graph Pad Inc) and IC50 of negative allosteric modulator activity is calculated. Dose-response experiments are performed in duplicate, two times independently.
On the technique in general: A change in cytosolic calcium serves as a functional read-out for many receptors and channels.

T1 sequence (Q14416 19-872): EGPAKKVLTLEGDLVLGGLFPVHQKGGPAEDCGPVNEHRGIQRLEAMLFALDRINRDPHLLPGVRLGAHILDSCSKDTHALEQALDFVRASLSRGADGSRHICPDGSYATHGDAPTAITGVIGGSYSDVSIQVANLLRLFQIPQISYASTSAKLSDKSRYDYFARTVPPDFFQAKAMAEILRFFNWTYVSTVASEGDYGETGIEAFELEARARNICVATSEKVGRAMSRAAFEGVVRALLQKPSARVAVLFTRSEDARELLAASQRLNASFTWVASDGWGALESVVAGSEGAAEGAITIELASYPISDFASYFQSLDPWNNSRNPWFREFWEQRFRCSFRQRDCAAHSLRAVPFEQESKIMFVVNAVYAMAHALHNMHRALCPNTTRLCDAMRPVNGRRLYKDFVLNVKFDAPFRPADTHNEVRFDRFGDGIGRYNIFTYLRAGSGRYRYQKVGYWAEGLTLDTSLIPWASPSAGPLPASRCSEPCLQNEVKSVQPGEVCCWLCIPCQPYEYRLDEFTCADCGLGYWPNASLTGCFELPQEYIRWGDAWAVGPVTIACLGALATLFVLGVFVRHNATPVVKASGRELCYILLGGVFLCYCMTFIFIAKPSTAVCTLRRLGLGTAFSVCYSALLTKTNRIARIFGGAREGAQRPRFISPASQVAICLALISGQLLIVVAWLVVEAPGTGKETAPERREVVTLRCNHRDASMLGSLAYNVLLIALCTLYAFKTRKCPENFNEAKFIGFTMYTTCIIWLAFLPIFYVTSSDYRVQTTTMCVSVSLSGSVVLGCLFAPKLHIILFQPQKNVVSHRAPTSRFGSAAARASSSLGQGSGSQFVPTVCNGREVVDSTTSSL

`Cn1c(=O)c2ccccc2n2nc(-c3ccnc(OCC4CC4)c3)cc12` [Example 19, 2-(2-Cyclopropylmethoxy-pyridin-4-yl)-4-methyl-4H-pyrazolo[1,5-a]quinazolin-5-one] had a melting point of 185 to 189 °C. The IC50 on human mGluR2 (hmGluR2) was less than 1000 nM.

As to `Cn1c(=O)c2ccccc2n2nc(-c3ccnc(OCC(F)(F)F)c3)cc12` [Example 21, 4-Methyl-2-[2-(2,2,2-trifluoro-ethoxy)-pyridin-4-yl]-4H-pyrazolo[1,5-a]quinazolin-5-one], the melting point lay within 219 to 223 °C. The IC50 at human mGluR2 (hmGluR2) was less than 1000 nM.

`Cn1c(=O)c2ccccc2n2nc(-c3ccnc(OCC(F)F)c3)cc12` [Example 22, 4-Methyl-2-[2-(2,2-difluoro-ethoxy)-pyridin-4-yl]-4H-pyrazolo[1,5-a]quinazolin-5-one] registered a melting point of 209 to 213 °C. Further, the IC50 at human mGluR2 (hmGluR2) was less than 1000 nM.

Compound `Cn1c(=O)c2ccccc2n2nc(-c3ccnc(OCC(C)(F)F)c3)cc12` [Example 23, 2-[2-(2,2-Difluoro-propoxy)-pyridin-4-yl]-4-methyl-4H-pyrazolo[1,5-a]quinazolin-5-one] gave a melting point of 189 to 191 °C. Besides, the IC50 at human mGluR2 (hmGluR2) was less than 1000 nM.

On to `Cn1c(=O)c2ccccc2n2nc(-c3ccnc(OCC(F)(F)C(F)(F)F)c3)cc12` [Example 24, 4-Methyl-2-[2-(2,2,3,3,3-pentafluoro-propoxy)-pyridin-4-yl]-4H-pyrazolo[1,5-a]quinazolin-5-one], for which the melting point was 150 to 155 °C. For the same compound, the half-inhibitory concentration (IC50) on human mGluR2 (hmGluR2) is less than 1000 nM.

Consider `Cn1c(=O)c2ccccc2n2nc(-c3ccnc(OC(C(F)(F)F)C(F)(F)F)c3)cc12` [Example 25, 4-Methyl-2-[2-(2,2,2-trifluoro-1-trifluoromethyl-ethoxy)-pyridin-4-yl]-4H-pyrazolo[1,5-a]quinazolin-5-one], for which the melting point was 188 to 194 °C. Besides, the IC50 at human mGluR2 (hmGluR2) is less than 1000 nM.

On to `Cn1c(=O)c2ccccc2n2nc(-c3ccnc(C(F)(F)F)c3)cc12` [Example 26, 4-Methyl-2-(2-trifluoromethyl-pyridin-4-yl)-4H-pyrazolo[1,5-a]quinazolin-5-one], for which the melting point lay in the range of 232 to 244 °C. Besides, the IC50 at human mGluR2 (hmGluR2) is less than 1000 nM.

The compound `[2H]C([2H])([2H])n1c(=O)c2ccccc2n2nc(-c3ccnc(C(F)(F)F)c3)cc12` [Example 27, 4-Methyl(D3)-2-(2-trifluoromethyl-pyridin-4-yl)-4H-pyrazolo[1,5-a]quinazolin-5-one] came in with a melting point of 232 to 237 °C. Besides, the IC50 at human mGluR2 (hmGluR2) is less than 1000 nM.

Turning to `CCn1c(=O)c2ccccc2n2nc(-c3ccnc(C(F)(F)F)c3)cc12` [Example 28, 4-Ethyl-2-(2-trifluoromethyl-pyridin-4-yl)-4H-pyrazolo[1,5-a]quinazolin-5-one], the melting point is 214 to 220 °C. In addition, the IC50 on human mGluR2 (hmGluR2) was less than 1000 nM.

`Cn1c(=O)c2ccccc2n2nc(-c3ccnc(C(F)F)c3)cc12` [Example 31, 4-Methyl-2-(2-difluoromethyl-pyridin-4-yl)-4H-pyrazolo[1,5-a]quinazolin-5-one] had a melting point of 192 to 196 °C. The IC50 on human mGluR2 (hmGluR2) was less than 1000 nM.

`Cn1c(=O)c2ccccc2n2nc(-c3ccnc(C(C)(F)F)c3)cc12` [Example 32, 2-[2-(1,1-Difluoro-ethyl)-pyridin-4-yl]-4-methyl-4H-pyrazolo[1,5-a]quinazolin-5-one] gave a melting point of 196 to 207 °C. In addition, the IC50 at human mGluR2 (hmGluR2) was less than 1000 nM.

`[2H]C([2H])([2H])n1c(=O)c2ccccc2n2nc(-c3ccnc(C(C)(F)F)c3)cc12` [Example 33, 2-[2-(1,1-Difluoro-ethyl)-pyridin-4-yl]-4-methyl(D3)-4H-pyrazolo[1,5-a]quinazolin-5-one] showed a melting point of 198 to 205 °C. The IC50 at human mGluR2 (hmGluR2) was less than 1000 nM.

Compound `Cc1ccc2c(c1)c(=O)n(C)c1cc(-c3ccnc(C(F)(F)F)c3)nn21` [Example 34] gave a melting point of 215 to 218 °C. The IC50 on human mGluR2 (hmGluR2) is less than 1000 nM.

Regarding `COc1ccc2c(c1)c(=O)n(C)c1cc(-c3ccnc(C(F)(F)F)c3)nn21` [Example 36], the melting point lay within 201 to 205 °C. Further, at human mGluR2 (hmGluR2), the IC50 is less than 1000 nM.

For `Cn1c(=O)c2cc(F)ccc2n2nc(-c3ccnc(C(F)(F)F)c3)cc12` [Example 38], the melting point is greater than 250 °C. In addition, the IC50 on human mGluR2 (hmGluR2) was less than 1000 nM.

For `CNc1ccc2c(c1)c(=O)n(C)c1cc(-c3ccnc(C(F)(F)F)c3)nn21` [Example 40, 4-Methyl-7-methylamino-2-(2-trifluoromethyl-pyridin-4-yl)-4H-pyrazolo[1,5-a]quinazolin-5-one], the melting point was greater than 250 °C. In addition, the concentration for half-maximal inhibition (IC50) at human mGluR2 (hmGluR2) was less than 1000 nM.

`[2H]C([2H])([2H])Nc1ccc2c(c1)c(=O)n(C)c1cc(-c3ccnc(C(F)(F)F)c3)nn21` [Example 41, 4-Methyl-7-methyl(D3)amino-2-(2-trifluoromethyl-pyridin-4-yl)-4H-pyrazolo[1,5-a]quinazolin-5-one] yielded a melting point greater than 250 °C. Further, the IC50 on human mGluR2 (hmGluR2) is less than 1000 nM.

As to `CN(C)c1ccc2c(c1)c(=O)n(C)c1cc(-c3ccnc(C(F)(F)F)c3)nn21` [Example 44, 7-Dimethylamino-4-methyl-2-(2-trifluoromethyl-pyridin-4-yl)-4H-pyrazolo[1,5-a]quinazolin-5-one], the melting point was greater than 250 °C. Besides, the IC50 on human mGluR2 (hmGluR2) was less than 1000 nM.

Consider `CCNc1ccc2c(c1)c(=O)n(C)c1cc(-c3ccnc(C(F)(F)F)c3)nn21` [Example 45, 7-Ethylamino-4-methyl-2-(2-trifluoromethyl-pyridin-4-yl)-4H-pyrazolo[1,5-a]quinazolin-5-one], for which the melting point lay in the range of 239 to 242 °C. Moreover, the IC50 at human mGluR2 (hmGluR2) was less than 1000 nM.

`Cn1c(=O)c2cc(O)ccc2n2nc(-c3ccnc(C(F)(F)F)c3)cc12` [Example 48, 7-Hydroxy-4-methyl-2-(2-trifluoromethyl-pyridin-4-yl)-4H-pyrazolo[1,5-a]quinazolin-5-one] gave a melting point greater than 250 °C. Besides, the IC50 at human mGluR2 (hmGluR2) was less than 1000 nM.

Compound `CCOc1ccc2c(c1)c(=O)n(C)c1cc(-c3ccnc(C(F)(F)F)c3)nn21` [Example 49, 7-Ethoxy-4-methyl-2-(2-trifluoromethyl-pyridin-4-yl)-4H-pyrazolo[1,5-a]quinazolin-5-one] returned a melting point of 152 to 158 °C. Besides, the IC50 at human mGluR2 (hmGluR2) is less than 1000 nM.

Regarding `Cn1c(=O)c2ccc(F)cc2n2nc(-c3ccnc(C(F)(F)F)c3)cc12` [Example 55, 8-Fluoro-4-methyl-2-(2-trifluoromethyl-pyridin-4-yl)-4H-pyrazolo[1,5-a]quinazolin-5-one], the melting point was greater than 250 °C. The IC50 at human mGluR2 (hmGluR2) was less than 1000 nM.

`CNc1ccc2c(=O)n(C)c3cc(-c4ccnc(C(F)(F)F)c4)nn3c2c1` [Example 61, 4-Methyl-8-methylamino-2-(2-trifluoromethyl-pyridin-4-yl)-4H-pyrazolo[1,5-a]quinazolin-5-one] gave a melting point greater than 250 °C. The IC50 at human mGluR2 (hmGluR2) is less than 1000 nM.

Consider `Cn1c(=O)c2ccc(N3CCC(O)CC3)cc2n2nc(-c3ccnc(C(F)(F)F)c3)cc12` [Example 63, 8-(4-Hydroxy-piperidin-1-yl)-4-methyl-2-(2-trifluoromethyl-pyridin-4-yl)-4H-pyrazolo[1,5-a]quinazolin-5-one], for which the melting point fell in the range of 112 to 117 °C. Also, the IC50 at human mGluR2 (hmGluR2) was less than 1000 nM.

The compound `CN(C)c1ccc2c(=O)n(C)c3cc(-c4ccnc(C(F)(F)F)c4)nn3c2c1` [Example 64, 8-Dimethylamino-4-methyl-2-(2-trifluoromethyl-pyridin-4-yl)-4H-pyrazolo[1,5-a]quinazolin-5-one] gave a melting point greater than 250 °C. In addition, the IC50 at human mGluR2 (hmGluR2) was less than 1000 nM.

On to `Cn1c(=O)c2ccc(N3CC(O)C3)cc2n2nc(-c3ccnc(C(F)(F)F)c3)cc12` [Example 68, 8-(3-Hydroxy-azetidin-1-yl)-4-methyl-2-(2-trifluoromethyl-pyridin-4-yl)-4H-pyrazolo[1,5-a]quinazolin-5-one], for which the melting point is greater than 250 °C. Also, the IC50 on human mGluR2 (hmGluR2) was less than 1000 nM.
